Assays:
[1] = Hygroscopicity and solid-form stability of paclitaxel crystal forms; format: physicochemical

SMILES	water solubility	conversion of crystal form ([1]; Form A: relative humidity greater than about 90% or aqueous suspensions, Form D: relatively high humidity)	hygroscopicity ([1]; normal laboratory conditions (RH approximately 50-60%; 20-30° C.))
CC(=O)O[C@H]1C(=O)[C@@]2(C)[C@H]([C@H](OC(=O)c3ccccc3)[C@]3(O)C[C@H](OC(=O)[C@H](O)[C@@H](NC(=O)c4ccccc4)c4ccccc4)C(C)=C1C3(C)C)[C@]1(OC(C)=O)CO[C@@H]1C[C@@H]2O [Form A, Paclitaxel]	highly water insoluble	converts (as a function of time, temperature, agitation, etc.) to a thermodynamically more stable form	substantially non-hygroscopic
CC(=O)OC1C(=O)C2(C)C(O)CC3OCC3(OC(C)=O)C2C(OC(=O)c2ccccc2)C2(O)CC(OC(=O)C(O)C(NC(=O)c3ccccc3)c3ccccc3)C(C)=C1C2(C)C.O.O.O (stereo not shown) [Form B]	even less water soluble than Form A	–	–
